The subject of one data set is gastric mucous membrane. In words: Gastric mucous membrane troubles in rats (ulceration). The following applies: oral, 1 mg/Kg, 6 hours. It counts as in vivo, rats (Wister strain, male). How it is done:
Anti-inflammatory activity on gastric mucous membrane troubles in rats
Male rats of Wister strain, each weighing about 200 g, were fasted except for unlimited feeding of water for a time period of 24 hours, after which each of the test compounds shown in Table 4 was administered to the rats so fasted. […] Six hours after said administration, the test animals were slaughtered to remove their stomachs which were incised along the greater curvature thereof to visually observe whether or not an ulcer was formed at the gastric mucous membrane of their stomachs. The ulceration ratio (%) was calculated from the following equation: [formula]

The conditions of data set [1]: for Stability: indomethacin: to alkalies, ketoprofen and flurbiprofen: to the gel base.
The conditions of data set [2]: orally administered; cited from earlier work.

In the case of `COc1ccc2c(c1)c(CC(=O)O)c(C)n2C(=O)c1ccc(Cl)cc1` [Indomethacin powder], the Ulceration ratio with gastric mucous membrane is 100.0%; in the data set with gastric mucous membrane (listed as indomethacin powder) it was 100%.
For the compound `CC(C(=O)O)c1ccc(-c2ccccc2)c(F)c1` (centres unmarked) [flurbiprofen], the “Solubility in the gel base” value in data set [1] (in words) is “excellent”. Further, the Stability entry in data set [1] is recorded as “excellent in stability”.
Take `COc1ccc2c(c1)c(CC(=O)O)c(C)n2C(=O)c1ccc(Cl)cc1` [indomethacin]: the Crystallization entry in data set [1] (gel base, in words) was “apt to crystallize out”. For the same compound, the “Solubility in the gel base” value in data set [1] (in words) was “inferior in solubility in the gel base”. In addition, the Stability entry in data set [1] was “unstable to alkalies”. In addition, the “Medicinal efficacy compared with the effective ingredient of the composition of this invention” value in data set [2] is listed as “equal or slightly superior in medicinal efficacy”.

The record behind these values is patent US4393076A, “Anti-inflammatory and analgesic gel composition” (priority 1980, dated 1983).
